Laboratory results as given in patent US12428415B2, “Matriptase 2 inhibitors and uses thereof” (Disc Medicine, Inc., priority 2018, dated 2025).

These molecules were tested against T1, Human Recombinant Matriptase 2 (Homo sapiens, UniProt Q8IU80) (assay: Matriptase 2 fluorescence based inhibition assay, Method B (50 mM TRIS pH 7.5, 150 mM NaCl, 0.01% gelatin)). Details: 1 uM compound; Assay Used = B (Method B).
T1 construct: purchased Enzo Life Sciences (an in-house preparation was also used) ALX-201-752-1
T1 sequence (Q8IU80 1-811): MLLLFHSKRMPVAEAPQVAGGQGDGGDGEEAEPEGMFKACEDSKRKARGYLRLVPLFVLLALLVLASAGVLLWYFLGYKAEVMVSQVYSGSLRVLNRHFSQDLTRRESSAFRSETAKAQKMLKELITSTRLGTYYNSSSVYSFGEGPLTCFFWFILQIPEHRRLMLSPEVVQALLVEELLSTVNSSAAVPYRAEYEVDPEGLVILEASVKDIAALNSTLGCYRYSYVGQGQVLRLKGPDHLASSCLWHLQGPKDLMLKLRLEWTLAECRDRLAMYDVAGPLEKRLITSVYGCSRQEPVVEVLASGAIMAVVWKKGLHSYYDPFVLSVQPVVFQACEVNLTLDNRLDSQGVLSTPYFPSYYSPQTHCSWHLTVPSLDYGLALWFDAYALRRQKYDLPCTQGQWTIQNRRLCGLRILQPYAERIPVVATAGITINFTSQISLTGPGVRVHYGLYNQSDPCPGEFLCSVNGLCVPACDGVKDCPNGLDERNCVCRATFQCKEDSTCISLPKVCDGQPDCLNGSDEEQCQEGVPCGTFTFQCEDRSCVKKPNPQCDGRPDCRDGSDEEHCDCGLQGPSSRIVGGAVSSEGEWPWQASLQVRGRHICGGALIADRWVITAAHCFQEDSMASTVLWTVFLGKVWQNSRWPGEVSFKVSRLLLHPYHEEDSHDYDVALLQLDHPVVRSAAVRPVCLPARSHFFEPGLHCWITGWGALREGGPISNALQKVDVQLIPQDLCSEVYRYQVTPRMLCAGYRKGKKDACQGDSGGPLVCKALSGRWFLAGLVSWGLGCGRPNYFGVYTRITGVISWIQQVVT
Format: biochemical
In short: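 Fluorogenic substrate Boc-Gln-Ala-Arg-7-amido-4-methylcoumarin (100 μM) cleavage read at Ex 360/Em 480 nm 60 min after addition, following 30 min enzyme–compound preincubation at 25° C. Enzyme was 7 nM commercial or 15 nM in-house; DMSO 1%. IC50s fitted by non-linear sigmoidal regression.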

Mar-2 % inhibition at 1 uM	Structure (SMILES)
A (A represents 0%≤I≤25%)	N=C(N)c1ccc2cc(C(=O)N[C@H]3CC[C@H](N)CC3)n(Cc3ccccc3-c3ccccc3)c2c1 [Compound I-646]
C (C represents 50%≤I≤75%)	N=C(N)c1ccc2cc(C(=O)N[C@H]3CC[C@H](N)CC3)n(Cc3cncc4ccccc34)c2c1 [Compound I-687]
B (B represents 25%≤I≤50%)	N=C(N)c1ccc2cc(C(=O)N[C@H]3CC[C@H](N)CC3)n(Cc3ccc(C(=O)O)c4ccccc34)c2c1 [Compound I-673]

Same assay, conditions: 1 uM compound; Assay Used = B (Method B); read-out: Mar-2 % inhibition at 1 uM

Structure (SMILES)	inhibition at 1 µM [%]
CCOC(=O)c1cc2ccc(C(=N)N)cc2n1Cc1cc(Oc2ccccc2)cc2ccccc12 [Compound I-662]	25 to 50
CO/N=C(\N)c1ccc2cc(C(=O)O)n(Cc3cccc4ccccc34)c2n1 [Compound I-704, (Z)-6-(N′-methoxycarbamimidoyl)-1-(naphthalen-1-ylmethyl)-1H-pyrrolo[2,3-b]pyridine-2-carboxylic Acid]	0 to 25
CCOC(=O)c1cc2ccc(C(N)=NO)cc2n1Cc1cc(S(=O)(=O)c2ccccc2)cc2ccccc12 [Compound I-658]	0 to 25
N=C(N)c1ccc2cc(C(=O)Nc3ccc4ncccc4c3)n(Cc3cccc4ccccc34)c2c1 [Compound I-771]	25 to 50
CC(C)(C)OC(=O)NC(=N)c1ccc2cc(C(=O)N[C@H]3CCCc4ccccc43)n(Cc3cccc4ccccc34)c2c1 [Compound I-767]	0 to 25
Cn1c(C(=O)O)c(-c2ccc3ccccc3c2)c2cc(C(=N)N)ccc21 [Compound I-637]	0 to 25
N=C(N)c1ccc2cc(C(=O)O)n(Cc3cccc4ccccc34)c2n1 [Compound I-766]	75 to 100
N=C(N)c1ccc2cc(C(=O)O)n(Cc3cc(Oc4cccnn4)cc4ccccc34)c2c1 [Compound I-610]	25 to 50
CCOC(=O)c1cc2ccc(C(=N)NC(=O)OCC(C)C)cc2n1Cc1cccc2ccccc12 [Compound I-719, Ethyl 6-(N-(isobutoxycarbonyl)carbamimidoyl)-1-(naphthalen-1-ylmethyl)-1H-indole-2-carboxylate]	0 to 25
N/C(=N/O)c1ccc2cc(C(=O)O)n(Cc3cccc4ccccc34)c2c1 [Compound I-759]	0 to 25
N=C(N)c1ccc2cc(C(=O)O)n(Cc3c(Cl)c(Sc4ccccc4)cc4ccccc34)c2c1 [Compound I-653]	0 to 25
N=C(N)c1ccc2cc(C(=O)O)n(Cc3cc(N4CCOCC4=O)cc4ccccc34)c2c1 [Compound I-692]	0 to 25
N=C(N)c1ccc2cc(-c3nnnn3CCO)n(Cc3cccc4ccccc34)c2c1 [Compound I-710]	75 to 100

Further lines, results first:

inhibition at 1 µM [%]	Structure (SMILES)
50 to 75	N=C(N)c1ccc2cc(C(=O)OCCO)n(Cc3cccc4ccccc34)c2c1 [Compound I-611]
25 to 50	N=C(N)c1ccc2cc(C(=O)O)n(Cc3cc(OC4CCCCC4)cc4ccccc34)c2c1 [Compound I-682]
75 to 100	CN1CCC(OC(=O)c2cc3ccc(C(=N)N)cc3n2Cc2cccc3ccccc23)CC1 [Compound I-752]
75 to 100	N=C(N)c1ccc2cc(C(=O)N[C@H]3CC[C@H](N)CC3)n(Cc3cc(S(=O)(=O)c4ccccc4)cc4ccccc34)c2c1 [Compound I-727]
75 to 100	N=C(N)c1ccc2cc(C(=O)N[C@H]3CC[C@H](N)CC3)n(Cc3cccc4cc(OCc5ccccc5)ccc34)c2c1 [Compound I-740]
75 to 100	N=C(N)c1ccc2cc(C(=O)O)n(Cc3cc(O)cc4ccccc34)c2c1 [Compound I-695, 6-carbamimidoyl-1-((3-hydroxynaphthalen-1-yl)methyl)-1H-indole-2-carboxylic Acid]
75 to 100	CS(=O)(=O)N[C@H]1CC[C@@H](NC(=O)c2cc3ccc(C(=N)N)nc3n2Cc2cccc3ccccc23)CC1 [Compound I-723]
50 to 75	N=C(N)c1ccc2cc(C(=O)O)n(Cc3csc4ccccc34)c2c1 [Compound I-703]
25 to 50	CC(C)OC(=O)NC(=N)c1ccc2cc(C(=O)NC3CCN(C)CC3)n(Cc3cccc4ccccc34)c2c1 [Compound I-784]

Same assay, conditions: 1 uM compound; Assay Used = B; read-out: Mar-2 % inhibition at 1 uM

Structure (SMILES)	inhibition at 1 µM [%]
N=C(N)c1ccc2cc(C(=O)O)n(Cc3cc(Oc4ncccn4)cc4ccccc34)c2n1 [Compound I-544]	25 to 50
NCc1ccc2cc(C(=O)NCC3CCNCC3)n(-c3ccc4ccccc4c3)c2c1 [Compound I-537]	0 to 25
N=C(N)c1ccc2cc(CO)n(Cc3cccc4ccccc34)c2c1 [Compound I-487, 2-(hydroxymethyl)-1-(naphthalen-1-ylmethyl)-1H-indole-6-carboximidamide]	50 to 75
CC(C)(C)OC(=O)NC(=N)c1ccc2cc(C(=O)NCc3ccc(CO)cc3)n(Cc3cccc4ccccc34)c2c1 [Compound I-421]	0 to 25
CC(C)(C)OC(=O)NC(=N)c1ccc2cc(C(=O)N3CC[C@H](NC(=O)OC(C)(C)C)C3)n(Cc3cccc4ccccc34)c2c1 (stereo in doubt) [Compound I-428]	0 to 25
N=C(N)c1ccc2cc(C(=O)NCCO)n(Cc3cc(Oc4ncccn4)cc4ccccc34)c2c1 [Compound I-582]	75 to 100
CC(C)(C)OC(=O)NC(=N)c1ccc2cc(C(=O)NC3CCC(NC(=O)OC(C)(C)C)CC3)n(Cc3cccc(Cl)c3Cl)c2c1 (stereo not shown) [Compound I-493]	0 to 25
CCOC(=O)c1cc2ccc(C(=N)NC(=O)OCC(C)C)cc2n1Cc1cc(Oc2ccsc2)cc2ccccc12 [Compound I-586]	25 to 50
N=C(N)c1ccc2cc(C(=O)O)n(Cc3cc(Oc4nccs4)cc4ccccc34)c2c1 [Compound I-589]	75 to 100
N=C(N)c1ccc2cc(C(=O)OCCNC(N)=O)n(Cc3cc(Oc4ncccn4)cc4ccccc34)c2c1 [Compound I-568]	75 to 100

Continued, values first:

inhibition at 1 µM [%]	Structure (SMILES)
75 to 100	N=C(N)c1ccc2cc(C(=O)NCCCCN)n(Cc3cccc4ccccc34)c2c1 [Compound I-452]
0 to 25	CC(C)(C)OC(=O)NC(=N)c1ccc2cc(C(=O)N[C@H]3CC[C@H](NC(=O)OC(C)(C)C)CC3)n(Cc3ccnc4ccccc34)c2c1 [Compound I-494]
25 to 50	CNC(=N)c1ccc2cc(C(=O)NC3CCC(NC(=O)OC(C)(C)C)CC3)n(Cc3ccc4ccccc4c3)c2c1 (stereo not shown) [Compound I-412]
75 to 100	CS(=O)(=O)Nc1cc(Cn2c(C(=O)O)cc3ccc(C(=N)N)cc32)c2ccccc2c1 [Compound I-546]
75 to 100	CN(C)[C@H]1CC[C@@H](NC(=O)c2cc3ccc(C(=N)N)cc3n2Cc2cccc3ccccc23)CC1 [Compound I-470]
25 to 50	N=C(N)c1ccc2cc(C(=O)N[C@H]3CC[C@H](N)CC3)n(Cc3cc(Cl)cc(Cl)c3)c2c1 [Compound I-505]
75 to 100	N=C(N)c1ccc2cc(C(=O)NC3CCNCC3)n(Cc3cccc4ccccc34)c2c1 [Compound I-418, 6-carbamimidoyl-1-(naphthalen-1-ylmethyl)-N-(piperidin-4-yl)-1H-indole-2-carboxamide]
0 to 25	CC(C)(C)OC(=O)N[C@H]1CC[C@H](NC(=O)c2cc3ccc(CN)cc3n2Cc2cccc3ccccc23)CC1 [Compound I-530, tert-butyl ((1r,4r)-4-(6-(aminomethyl)-1-(naphthalen-1-ylmethyl)-1H-indole-2-carboxamido)cyclohexyl) carbamate]
0 to 25	CC(C)(C)OC(=O)N[C@H]1CC[C@H](NC(=O)c2cc3ccc(C(=N)N)cc3n2CCc2cccc3ccccc23)CC1 [Compound I-404]
25 to 50	NCc1ccc2cc(C(=O)N[C@H]3CC[C@H](O)CC3)n(Cc3cccc4ccccc34)c2c1 [Compound I-532]

Same assay, conditions: at 1 uM; Assay Used = B; read-out: Mar-2 % inhibition at 1 uM

inhibition at 1 µM [%]	Structure (SMILES)
75 to 100	N=C(N)c1ccc(CNC(=O)c2cc3ccc(C(=N)N)cc3n2Cc2cccc3ccccc23)cc1 [Compound I-395]

Same assay, conditions: compound at 1 uM; Assay Used: B; read-out: Mar-2 % inhibition at 1 uM

inhibition at 1 µM [%]	Structure (SMILES)
25 to 50	N=C(N)c1ccc2cc(C(=O)OC3CCCCC3)n(Cc3cccc4ccccc34)c2c1 [Compound I-811]
25 to 50	N=C(N)c1ccc2cc(C(=O)N[C@H]3CC[C@H](N)CC3)n(Cc3cc(CO)cc4ccccc34)c2c1 [Compound I-800, N-((1r,4r)-4-aminocyclohexyl)-6-carbamimidoyl-1-((3-(hydroxymethyl)naphthalen-1-yl)methyl)-1H-indole-2-carboxamide]
75 to 100	COC(=O)c1ccc(Cn2c(C(=O)N[C@H]3CC[C@H](N)CC3)cc3ccc(C(=N)N)cc32)c2ccccc12 [Compound I-825]
